The results in this text go back to article PMC8599513, “Efficient biosynthesis of nucleoside cytokinin angustmycin A containing an unusual sugar system” (Nature Communications, 2021).

One experiment concerns the target T1, AgmE (Streptomyces angustmyceticus, UniProt A0A5J4LCM7).
T1 construct: gene San01_08850; recombinant, overexpressed in and purified from E. coli BL21(DE3)
T1 sequence (A0A5J4LCM7 1-178): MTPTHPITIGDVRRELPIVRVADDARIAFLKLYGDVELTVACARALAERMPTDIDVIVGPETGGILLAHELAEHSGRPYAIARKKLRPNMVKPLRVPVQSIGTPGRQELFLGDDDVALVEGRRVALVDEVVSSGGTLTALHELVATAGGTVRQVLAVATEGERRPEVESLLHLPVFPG
Put plainly: HPLC and LC-MS, AMP formation. It counts as biochemical. The conditions noted are these: 1 mM Mg2+, 50 mM PBS pH 7.5, 30 °C.

A further experiment deals with T2, AgmA (Streptomyces angustmyceticus, UniProt A0A5J4L869).
T2 construct: gene San01_08890; recombinant, overexpressed in and purified from E. coli BL21(DE3)
T2 sequence (A0A5J4L869 1-193): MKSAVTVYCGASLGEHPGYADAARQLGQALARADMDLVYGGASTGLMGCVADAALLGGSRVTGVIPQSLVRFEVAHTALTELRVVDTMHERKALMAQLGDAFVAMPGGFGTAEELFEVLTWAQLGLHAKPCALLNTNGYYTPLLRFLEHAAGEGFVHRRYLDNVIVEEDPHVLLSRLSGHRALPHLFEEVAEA
Kind of experiment: HPLC and LC-MS, adenine release. The settings on record: 50 mM Tris-Cl pH 7.5, 1 mM substrate, 30 °C, 2 h. It counts as biochemical.

For the next experiment, the system named is T3, AgmF.
T3 construct: recombinant, overexpressed in and purified from E. coli BL21(DE3)
Kind of experiment: HPLC dehydration assay. The settings on record: dehydration to angustmycin A; kinetic assay conditions only in supplement. It counts as biochemical, Streptomyces angustmyceticus.

A word on the Km: it is the concentration of substrate that gives half-maximal velocity.

Turning to `Nc1ncnc2[nH]cnc12` [adenine], at AgmE (co-substrate PRPP 1 mM, methods print adenosine instead of adenine), the “HPLC and LC-MS, AMP formation” value is “assayed in vitro with the substrates adenine and phosphoribosyl pyrophosphate (PRPP)”.
With `Nc1ncnc2c1ncn2[C@@H]1O[C@H](COP(=O)(O)O)[C@@H](O)[C@H]1O` [AMP], the “HPLC and LC-MS, adenine release” value on AgmA is “AgmA is capable of consuming AMP/dAMP as a substrate”.
`Nc1ncnc2c1ncn2[C@]1(CO)O[C@H](CO)[C@@H](O)[C@H]1O` [compound 2, angustmycin C]: in the experiment on AgmF, the Km was determined as 1380 ± 121 µM.
In the case of `O=P(O)(O)OC[C@H]1O[C@H](OP(=O)(O)OP(=O)(O)O)[C@H](O)[C@@H]1O` [PRPP], the “HPLC and LC-MS, AMP formation” value on AgmE (co-substrate adenine) was “assayed in vitro with the substrates adenine and phosphoribosyl pyrophosphate (PRPP)”.
As for `Nc1ncnc2c1ncn2[C@H]1C[C@H](O)[C@@H](COP(=O)(O)O)O1` [dAMP], on AgmA, the “HPLC and LC-MS, adenine release” value is listed as “AgmA is capable of consuming AMP/dAMP as a substrate”.
